Results published in US11053196B2, “Substituted indoline derivatives as dengue viral replication inhibitors” (JANSSEN PHARMACEUTICALS, INC., priority 2017, dated 2021).

Experiments:
[1] = system: DENV-2 16681 strain; experiment: DENV-2 antiviral assay (eGFP-labeled virus in Vero cells); assay type: cell-based, Dengue virus; conditions: DENV-2 16681 eGFP, MOI 0.5, 3 days
Description: The antiviral activity of all the compounds of the invention was tested against the DENV-2 16681 strain which was labeled with enhanced green fluorescent protein (eGPF). The culture medium consists of minimal essential medium supplemented with 2% of heat-inactivated fetal calf serum, 0.04% gentamycin (50 mg/mL) and 2 mM of L-glutamine. Vero cells, obtained from ECACC, were suspended in culture medium and 25 μL was added to 384-well plates (2500 cells/well), which already contain the antiviral compounds. Typically, these plates contain a 5-fold serial dilution of 9 dilution steps of the test compound at 200 times the final concentration in 100% DMSO (200 nL). […] Finally, each plate contains wells which are assigned as virus controls (containing cells and virus in the absence of compound), cell controls (containing cells in the absence of virus and compound) and medium controls (containing medium in the absence of cells, virus and compounds). To the wells assigned as medium control, 25 μL of culture medium was added instead of Vero cells. Once the cells are added to the plates, the plates were incubated for 30 minutes at room temperature to allow the cells to distribute evenly within the wells. Next, the plates were incubated in a fully humidified incubator (37° C., 5% CO2) until the next day. Then, DENV-2 strain 16681, labeled with eGFP, was added at a multiplicity of infection (MOI) of 0.5.
Therefore, 15 μL of virus suspension was added to all the wells containing test compound and to the wells assigned as virus control. In parallel, 15 μL of culture medium was added to the medium and cell controls. Next, the plates were incubated for 3 days in a fully humidified incubator (37° C., 5% CO2). At the day of the read out, the eGFP fluorescence was measured using an automated fluorescence microscope at 488 nm (blue laser). Using an in-house LIMS system, inhibition dose response curves for each compound were calculated and the half maximal effective concentration (EC50) was determined. Therefore, the percent inhibition (I) for every test concentration is calculated using the following formula: I=100*(ST−SCC)/(SVC−SCC); ST, SCC and SVC are the amount of eGFP signal in the test compound, cell control and virus control wells, respectively. The EC50 represents the concentration of a compound at which the virus replication is inhibited with 50%, as measured by a 50% reduction of the eGFP fluorescent intensity compared to the virus control. The EC50 is calculated using linear interpolation (Table 1).

[2] = in vitro; conditions: African green monkey
[3] = Dengue virus, DENV2, Vero, 72 h

SMILES | EC50 [1, 3] | CC50 [2] | EC50 [1]
COc1cc(NC(C(=O)N2CCc3ccc(S(F)(F)(F)(F)F)cc32)c2ccc(Cl)cc2)cc(OCCCC(=O)O)c1 (racemic) [Compound 1, 4-(3-((1-(4-chlorophenyl)-2-oxo-2-(6-(pentafluoro-λ^6-sulfanyl)indolin-1-yl)ethyl)amino)-5-methoxyphenoxy)butanoic acid] | 0.00064 µM | 13 µM | 
COc1cc(NC(C(=O)N2CCc3c(C)cc(C(F)(F)F)cc32)c2ccc(Cl)cc2)cc(OCCCC(=O)O)c1 (racemic) [Compound 2, 4-(3-((1-(4-chlorophenyl)-2-(4-methyl-6-(trifluoromethyl)indolin-1-yl)-2-oxoethyl)amino)-5-methoxyphenoxy)butanoic acid] | 0.00038 µM | 12 µM | 
COc1cc(NC(C(=O)N2CCc3cc(F)c(C(F)(F)F)cc32)c2ccc(Cl)cc2)cc(OCCCC(=O)O)c1 (racemic) [Compound 3, 4-(3-((1-(4-chlorophenyl)-2-(5-fluoro-6-(trifluoromethyl)indolin-1-yl)-2-oxoethyl)amino)-5-methoxyphenoxy)butanoic acid] | 0.00056 µM | 13 µM | 
COc1cc(NC(C(=O)N2CCc3c(C)cc(OC(F)(F)F)cc32)c2ccc(Cl)cc2)cc(OCCCC(=O)O)c1 (racemic) [Compound 4, 4-(3-((1-(4-chlorophenyl)-2-(4-methyl-6-(trifluoromethoxy)indolin-1-yl)-2-oxoethyl)amino)-5-methoxyphenoxy)butanoic acid] | 0.00011 µM | 12 µM | 
COc1cc(NC(C(=O)N2CCc3cc(F)c(OC(F)(F)F)cc32)c2ccc(Cl)cc2)cc(OCCCC(=O)O)c1 (racemic) [Compound 5, 4-(3-((1-(4-chlorophenyl)-2-(5-fluoro-6-(trifluoromethoxy)indolin-1-yl)-2-oxoethyl)amino)-5-methoxyphenoxy)butanoic acid] | 0.00011 µM | 10 µM | 
COc1cc(NC(C(=O)N2CCc3ccc(OC(F)(F)F)cc32)c2ccc(F)cc2OC)cc(OCCCC(=O)O)c1 (racemic) [Compound 6, 4-(3-((1-(4-fluoro-2-methoxyphenyl)-2-oxo-2-(6-(trifluoromethoxy)indolin-1-yl)ethyl)amino)-5-methoxyphenoxy)butanoic acid] | 0.00063 µM | 12 µM | 
COc1cc(NC(C(=O)N2CCc3ccc(OC(F)(F)F)cc32)c2ccc(Cl)cc2OCCO)cc(OCCCC(=O)O)c1 (racemic) [Compound 8, 4-(3-((1-(4-chloro-2-(2-hydroxyethoxy)phenyl)-2-oxo-2-(6-(trifluoromethoxy)indolin-1-yl)ethyl)amino)-5-methoxyphenoxy)butanoic acid] | 0.00015 µM | 13 µM | 
COc1cc(NC(C(=O)N2CCc3nc(OC)c(C(F)(F)F)cc32)c2ccc(Cl)cc2)cc(OCCCC(=O)O)c1 (racemic) [Compound 9, 4-(3-((1-(4-chlorophenyl)-2-(5-methoxy-6-(trifluoromethyl)-2,3-dihydro-1H-pyrrolo[3,2-b]pyridin-1-yl)-2-oxoethyl)amino)-5-methoxyphenoxy)butanoic acid] | 0.00099 µM | 12 µM | 
COc1cc(NC(C(=O)N2CCc3sc(C(F)(F)F)cc32)c2ccc(Cl)cc2)cc(OCCCC(=O)O)c1 (racemic) [Compound 10, 4-(3-((1-(4-chlorophenyl)-2-oxo-2-(2-(trifluoromethyl)-5,6-dihydro-4H-thieno[3,2-b]pyrrol-4-yl)ethyl)amino)-5-methoxyphenoxy)butanoic acid] | 0.00052 µM | 19 µM | 
COc1cc(NC(C(=O)N2CCc3ccc(SC(F)(F)F)cc32)c2ccc(Cl)cc2)cc(OCCCC(=O)O)c1 (racemic) [Compound 11, 4-(3-((1-(4-chlorophenyl)-2-oxo-2-(6-((trifluoromethyl)thio)indolin-1-yl)ethyl)amino)-5-methoxyphenoxy)butanoic acid] | 0.00028 µM | 13 µM | 
COc1cc(NC(C(=O)N2CCc3ccc(S(F)(F)(F)(F)F)cc32)c2ccc(Cl)cc2)cc(OCCCC(=O)O)c1 (single isomer, unassigned) [Compound 1A, 4-(3-((1-(4-chlorophenyl)-2-oxo-2-(6-(pentafluoro-λ^6-sulfanyl)indolin-1-yl)ethyl)amino)-5-methoxyphenoxy)butanoic acid] |  | 12 µM | 0.0013 µM
COc1cc(NC(C(=O)N2CCc3c(C)cc(C(F)(F)F)cc32)c2ccc(Cl)cc2)cc(OCCCC(=O)O)c1 (single isomer, unassigned) [Compound 2A, 4-(3-((1-(4-chlorophenyl)-2-(4-methyl-6-(trifluoromethyl)indolin-1-yl)-2-oxoethyl)amino)-5-methoxyphenoxy)butanoic acid] |  | 12 µM | 0.015 µM
COc1cc(NC(C(=O)N2CCc3cc(F)c(OC(F)(F)F)cc32)c2ccc(Cl)cc2)cc(OCCCC(=O)O)c1 (single isomer, unassigned) [Compound 5A, 4-(3-((1-(4-chlorophenyl)-2-(5-fluoro-6-(trifluoromethoxy)indolin-1-yl)-2-oxoethyl)amino)-5-methoxyphenoxy)butanoic acid] |  | 10 µM | 0.0023 µM
COc1cc(NC(C(=O)N2CCc3ccc(OC(F)(F)F)cc32)c2ccc(F)cc2OC)cc(OCCCC(=O)O)c1 (single isomer, unassigned) [Compound 6A, 4-(3-((1-(4-fluoro-2-methoxyphenyl)-2-oxo-2-(6-(trifluoromethoxy)indolin-1-yl)ethyl)amino)-5-methoxyphenoxy)butanoic acid] |  | 11 µM | 0.25 µM
